Counter-ions that a name gives are not always drawn.
What follows are compounds tested against T1, METTL3/14 (Homo sapiens, UniProt Q86U44) (assay: METTL3/14 methyltransferase assay (METTL3_14 RFMS, RapidFire mass spectrometry)). Settings: 5 nM METTL3/14, 0.2 μM RNA substrate, 0.5 μM SAM; lower limit of the assay IC50=5 nM; Compounds 1-62; read-out: METTL3_14 RFMS IC50.
T1 construct: The enzyme used was full-length his-tagged METTL3; His; made in house
Type: biochemical
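Also: recombinant His-tagged METTL3 with FLAG-tagged METTL14 from baculovirus, SAH product quantified by mass spectrometry against isotope-labelled internal standards, 60 min at room temperature, scaled between no-RNA and DMSO-only wells.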

T1 sequence (Q86U44 whole entry): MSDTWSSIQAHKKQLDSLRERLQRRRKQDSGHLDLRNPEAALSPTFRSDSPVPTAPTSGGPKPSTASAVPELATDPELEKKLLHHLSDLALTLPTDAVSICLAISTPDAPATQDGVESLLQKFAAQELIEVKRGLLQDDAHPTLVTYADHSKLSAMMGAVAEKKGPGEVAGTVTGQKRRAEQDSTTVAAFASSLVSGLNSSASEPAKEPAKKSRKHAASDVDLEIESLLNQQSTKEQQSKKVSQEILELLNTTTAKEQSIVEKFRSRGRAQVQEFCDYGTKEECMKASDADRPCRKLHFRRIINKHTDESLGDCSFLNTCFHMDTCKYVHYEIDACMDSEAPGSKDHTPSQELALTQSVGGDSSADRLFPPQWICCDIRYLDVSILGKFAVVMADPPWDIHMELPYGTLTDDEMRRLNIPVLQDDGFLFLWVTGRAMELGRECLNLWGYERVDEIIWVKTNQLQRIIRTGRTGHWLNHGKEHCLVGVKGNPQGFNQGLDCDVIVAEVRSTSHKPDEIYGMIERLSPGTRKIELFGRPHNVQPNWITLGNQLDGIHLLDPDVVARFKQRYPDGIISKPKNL
T1 sequence (Q9HCE5 whole entry partner): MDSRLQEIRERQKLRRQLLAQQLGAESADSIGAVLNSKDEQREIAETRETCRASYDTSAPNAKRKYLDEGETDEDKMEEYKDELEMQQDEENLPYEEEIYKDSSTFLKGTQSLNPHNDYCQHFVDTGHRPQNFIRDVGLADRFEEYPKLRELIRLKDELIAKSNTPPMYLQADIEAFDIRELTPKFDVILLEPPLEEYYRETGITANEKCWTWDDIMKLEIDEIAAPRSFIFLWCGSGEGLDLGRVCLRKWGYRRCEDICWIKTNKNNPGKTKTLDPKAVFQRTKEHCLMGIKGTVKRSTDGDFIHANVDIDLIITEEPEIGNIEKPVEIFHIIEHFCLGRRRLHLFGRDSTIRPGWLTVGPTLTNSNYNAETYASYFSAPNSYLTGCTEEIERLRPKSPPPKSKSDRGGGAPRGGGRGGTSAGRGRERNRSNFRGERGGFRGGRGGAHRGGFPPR

In order of falling IC50:
1. O=C(NCc1cn2ccc(Br)cc2n1)c1cccc2[nH]ncc12 [Compound 2, N-({7-bromoimidazo[1,2-a]pyridin-2-yl}methyl)-1H-indazole-4-carboxamide]  9840 nM
2. O=C(NCc1cn2ccccc2n1)c1cc(=O)c2ccccc2o1 [Compound 13]  4180 nM
3. COc1ccn2c(=O)cc(C(=O)NCc3cn4cc(C)ccc4n3)nc2c1 [Compound 19, 8-methoxy-N-({6-methylimidazo[1,2-a]pyridin-2-yl}methyl)-4-oxo-4H-pyrido[1,2-a]pyrimidine-2-carboxamide]  2600 nM
4. O=C(NCc1cn2cc(CNCCO)ccc2n1)c1cccc2[nH]ncc12 [Compound 45]  2580 nM
5. O=C(NCc1cn2ccccc2n1)c1cc(=O)n2ccccc2n1 [Compound 26]  2060 nM
6. O=C(NCc1cn2cc(O)ccc2n1)c1cccc2[nH]ncc12 [Compound 43, N-({6-hydroxyimidazo[1,2-a]pyridin-2-yl}methyl)-1H-indazole-4-carboxamide]  1290 nM

Same assay, conditions: 5 nM METTL3/14, 0.2 μM RNA substrate, 0.5 μM SAM; lower limit of the assay IC50=5 nM; Compounds 63-265; read-out: METTL3_14 RFMS IC50

In order of falling IC50:
1. O=C(NCc1cn2cc(COCc3ccccc3)ccc2n1)c1cc(=O)n2ccccc2n1 [Compound 177]  1890 nM
2. Cc1ccc2nc(Cc3nnc(-c4cccc5[nH]ncc45)s3)cn2c1 [Compound 66, 4-[5-({6-methylimidazo[1,2-a]pyridin-2-yl}methyl)-1,3,4-thiadiazol-2-yl]-1H-indazole]  1350 nM
3. COC(=O)C1CCCN(Cc2ccc3nc(CNC(=O)c4cc(=O)n5ccccc5n4)cn3c2)C1 (centres unmarked) [Compound 200, methyl 1-({2-[({4-oxo-4H-pyrido[1,2-a]pyrimidin-2-yl}formamido)methyl]imidazo [1,2-a]pyridin-6-yl}methyl) piperidine-3-carboxylate]  1260 nM
4. O=C(NCc1cn2cc(CNCc3ccn(CC(F)(F)F)n3)ccc2n1)c1cc(=O)n2ccccc2n1 [Compound 105, 4-oxo-N-({6-[({[1-(2,2,2-trifluoroethyl)-1H-pyrazol-3-yl]methyl}amino)methyl]imidazo[1,2-a]pyridin-2-yl}methyl)-4H-pyrido[1,2-a] pyrimidine-2-carboxamide]  1200 nM
5. O=C(NCc1cn2cc(CNCCC3CCCCO3)ccc2n1)c1cc(=O)n2ccccc2n1 (centres unmarked) [Compound 154, N-{[6-({[2-(oxan-2-yl)ethyl]amino}methyl)imidazo [1,2-a]pyridin-2-yl]methyl}-4-oxo-4H-pyrido[1,2-a] pyrimidine-2-carboxamide]  1180 nM
6. NC(Cc1ccccc1)Cc1ccc2nc(CNC(=O)c3cc(=O)n4ccccc4n3)cn2c1 (centres unmarked) [Compound 247, N-{[6-(2-amino-3-phenylpropyl)imidazo[1,2-a]pyridin-2-yl]methyl}-4-oxo-4H-pyrido[1,2-a]pyrimidine-2-carboxamide]  1080 nM
7. CS(=O)(=O)CCNCc1ccc2nc(CNC(=O)c3cc(=O)n4ccccc4n3)cn2c1 [Compound 96, N-[(6-{[(2-methane-sulfonylethyl)amino]methyl}imidazo[1,2-a]pyridin-2-yl)methyl]-4-oxo-4H-pyrido [1,2-a]pyrimidine-2-carboxamide]  947 nM
8. O=C(NCc1cn2cc(CN3C4CCC3CC4)ccc2n1)c1cc(=O)n2ccccc2n1 [Compound 169, N-{[6-({7-azabicyclo [2.2.1]heptan-7-yl}methyl)imidazo[1,2-a]pyridin-2-yl]methyl}-4-oxo-4H-pyrido[1,2-a]pyrimidine-2-carboxamide]  391 nM
9. CC(C)(C)CNCc1ccc2nc(Cn3cc(-c4cncc5[nH]ncc45)nn3)cn2c1 [Example 256, (2,2-dimethylpropyl)({2-[(4-{1H-pyrazolo[3,4-c]pyridin-4-yl}-1H-1,2,3-triazol-1-yl)methyl]imidazo[1,2-a]pyridin-6-yl}methyl)amine]  246 nM
10. O=C(NCC1CCCCC1)c1ccc2nc(Cn3cc(-c4cccc5[nH]ncc45)nn3)cn2c1 [Example 249, N-(cyclohexylmethyl)-2-{[4-(1H-indazol-4-yl)-1H-1,2,3-triazol-1-yl]methyl}imidazo[1,2-a]pyridine-6-carboxamide]  229 nM
11. O=C(NCc1cn2cc(CNCC3CCCCC3)ccc2n1)c1cccc2[nH]ncc12 [Compound 182, N-[(6-{[(cyclohexyl-methyl)amino]methyl}imidazo[1,2-a]pyridin-2-yl)methyl]-1H-indazole-4-carboxamide]  179 nM
12. O=C(NCc1cn2cc(CNCC3CCCCO3)ccc2n1)c1cc(=O)n2ccccc2n1 (centres unmarked) [Compound 88, N-{[6-({[(oxan-2-yl)methyl]amino}methyl)imidazo[1,2-a]pyridin-2-yl]methyl}-4-oxo-4H-pyrido[1,2-a] pyrimidine-2-carboxamide]  114 nM
13. O=C(NCc1cn2cc(CNCc3cccc(C4CC4)c3)ccc2n1)c1cc(=O)n2ccccc2n1 [Compound 92, N-{[6-({[(3-cyclopropyl-phenyl)methyl]amino}methyl)imidazo[1,2-a]pyridin-2-yl]methyl}-4-oxo-4H-pyrido[1,2-a]pyrimidine-2-carboxamide]  112 nM
14. CN(Cc1ccc2nc(CNC(=O)c3cc(=O)n4ccccc4n3)cn2c1)CC1CC1 [Compound 136, N-[(6-{[(cyclopropyl-methyl)(methyl)amino]methyl}imidazo[1,2-a]pyridin-2-yl)methyl]-4-oxo-4H-pyrido[1,2-a]pyrimidine-2-carboxamide]  99 nM
15. O=C(NCc1cn2cc(CN3CCC(Oc4ccccc4)CC3)ccc2n1)c1cc(=O)n2ccccc2n1 [Compound 156, 4-oxo-N-({6-[(4-phenoxypiperidin-1-yl)methyl]imidazo[1,2-a]pyridin-2-yl}methyl)-4H-pyrido[1,2-a] pyrimidine-2-carboxamide]  61.7 nM
16. C[C@H](NCc1ccc2nc(CNC(=O)c3cc(=O)n4ccccc4n3)cn2c1)C(C)(C)C [Compound 215, N-{[6-({[(2S)-3,3-dimethylbutan-2-yl]amino}methyl)imidazo[1,2-a]pyridin-2-yl]methyl}-4-oxo-4H-pyrido [1,2-a]pyrimidine-2-carboxamide]  54.3 nM
17. C[C@@H](NCc1ccc2nc(CNC(=O)c3cc(=O)n4ccccc4n3)cn2c1)c1ccccc1 [Compound 75, 4-oxo-N-{[6-({[(1R)-1-phenylethyl]amino}methyl)imidazo[1,2-a]pyridin-2-yl]methyl}-4H-pyrido[1,2-a]pyrimidine-2-carboxamide]  48.1 nM
18. CC1(CNCc2ccc3nc(CNC(=O)c4cc(=O)c5ccccc5o4)cn3c2)CCCCC1 [Compound 222, N-{[6-({[(1-methylcyclohexyl)methyl]amino}methyl)imidazo [1,2-a]pyridin-2-yl]methyl}-4-oxo-4H-chromene-2-carboxamide]  33.9 nM
19. O=C(NCc1cn2cc(CNCC3CCCCC3)ccc2n1)c1cc(=O)c2ccccc2o1 [Compound 170, N-[(6-{[(cyclohexylmethyl)amino]methyl}imidazo[1,2-a]pyridin-2-yl)methyl]-4-oxo-4H-chromene-2-carboxamide]  29.4 nM
20. O=C(NCc1cn2cc(CNC3CCCCC3)ccc2n1)c1cc(=O)n2ccccc2n1 [Compound 86, N-({6-[(cyclohexyl-amino)methyl]imidazo[1,2-a]pyridin-2-yl}methyl)-4-oxo-4H-pyrido[1,2-a]pyrimidine-2-carboxamide]  23.1 nM
21. CC1(CNCc2ccc3nc(CNC(=O)c4cc(=O)n5ccccc5n4)cn3c2)CC1 [Compound 121, N-{[6-({[(1-methylcyclopropyl)methyl]amino}methyl)imidazo [1,2-a]pyridin-2-yl]methyl}-4-oxo-4H-pyrido [1,2-a]pyrimidine-2-carboxamide]  16.8 nM
22. CC(C)(C)CNCc1ccc2nc(CNC(=O)c3cc(=O)n4ccccc4n3)cn2c1 [Compound 113, N-[(6-{[(2,2-dimethylpropyl)amino]methyl}imidazo[1,2-a]pyridin-2-yl)methyl]-4-oxo-4H-pyrido[1,2-a] pyrimidine-2-carboxamide]  16.4 nM
23. CC1(CNCc2ccc3nc(CNC(=O)c4cc(=O)n5ccccc5n4)cn3c2)CCCCC1 [Compound 106, N-{[6-({[(1-methylcyclohexyl)methyl]amino}methyl)imidazo [1,2-a]pyridin-2-yl]methyl}-4-oxo-4H-pyrido [1,2-a]pyrimidine-2-carboxamide]  15 nM

Same assay, conditions: 5 nM METTL3/14, 0.2 μM RNA substrate, 0.5 μM SAM; lower limit of the assay IC50=5 nM; Compounds 266-351; read-out: METTL3_14 RFMS IC50

In order of falling IC50:
1. Cc1ccc2nc(Cn3cnc(-c4cccc5[nH]ncc45)c3)cn2c1 [Example 329, 2-[[4-(1H-indazol-4-yl)imidazol-1-yl]methyl]-6-methyl-imidazo[1,2-a]pyridine formate]  1640 nM
2. O=C(NCc1cn2cc(C3CNCCN3)ccc2n1)c1cc(=O)n2ccccc2n1 (centres unmarked) [Example 333, 4-oxo-N-[(6-piperazin-2-ylimidazo[1,2-a]pyridin-2-yl)methyl]pyrido[1,2-a]pyrimidine-2-carboxamide]  1230 nM
3. O=C(NCCO)c1cc(-c2cn(Cc3cn4cc(CNCC5CCC5)ccc4n3)nn2)c2cn[nH]c2c1 [Example 301]  233 nM
4. CC(C)(C)CNCc1ccc2nc(Cn3cc(-c4cc(C5CC5)cc5[nH]ncc45)nn3)cn2c1 [Example 321, N-[[2-[[4-(6-cyclopropyl-1H-indazol-4-yl)triazol-1-yl]methyl]imidazo[1,2-a]pyridin-6-yl]methyl]-2,2-dimethyl-propan-1-amine]  13.2 nM

Same assay, conditions: read-out: METTL3_14 RFMS IC50

In order of falling IC50:
1. O=C(NCc1cn2cc(NCCc3ccccc3)ccc2n1)c1cc(=O)n2ccccc2n1 [Compound 191, 4-oxo-N-({6-[(2-phenylethyl)amino]imidazo[1,2-a]pyridin-2-yl}methyl)-4H-pyrido[1,2-a]pyrimidine-2-carboxamide]  4790 nM
2. O=C(NCc1cn2cc(CNC34CC(C3)C4)ccc2n1)c1cc(=O)n2ccccc2n1 [Compound 116, N-({6-[({bicyclo[1.1.1]pentan-1-yl}amino)methyl]imidazo[1,2-a]pyridin-2-yl}methyl)-4-oxo-4H-pyrido[1,2-a] pyrimidine-2-carboxamide]  280 nM

Reference: patent publication US12358915B2, “METTL3 inhibitory compounds” (STORM THERAPEUTICS LTD., priority 2019, dated 2025)
